Laboratory results taken from patent publication US8168628B2, “Conjugated psychotropic drugs and uses thereof” (Ramot at Tel-Aviv University Ltd., priority 2001, dated 2012).
Where a name gives a salt, the structure may show the parent alone. Read-outs that look alike come from different tables or passages of the source.

Tests used:
prolactin = assay: Prolactin blood level in rats (enzyme immunometric assay); type: in vivo, rat; details: i.p.; measured at 0, 60 and 120 min after treatment
From the text: Prolactin secretion: Typical neuroleptics induce hyperprolactinemia, which is frequently associated with gallactorehea and impaired gonadal and sexual function. The measurement of the circulatory plasma prolactin level was therefore used as a sensitive biochemical marker for the psychotropic activity of the known neuroleptics and the chemical conjugates of the present invention, following intraperitoneal or oral administration thereof. Thus, blood was collected from the punctured eye orbital of rats under ether anesthesia and the assay was performed using Millennia, rat prolactin enzyme immunometric assay-kit (DPC, USA).

HL 60 = assay: Proliferation test, HL 60 cells; type: cell-based; details: Homo sapiens, linear regression of survival percentage
Description: (§1) Cell lines: Human prostate carcinoma (PC-3), human colon carcinoma (HT-29), murine melanoma (B-16) and its drug resistant subclone (B-16 MDR), mouse fibroblasts (3T3), myeloid leukemia (HL 60) and its drug resistant subclone (HL 60 MX2), endometrium cell line (MES SA) and its drug resistant subclone (MES DX5), jurkat T lymphoma and monocyte leukemia (U-937), were used in this study.
(§2) Proliferation of cancer and normal cells: Proliferation was measured by neutral red assay or by a fluorometric assay quantitating DNA content. In the neutral red assay, the neutral red is absorbed by lysosomes, thus causing coloring of living cells. Quantitative analysis is performed by colorimetric assay (ELISA reader at 550 nm). In the fluorometric assay, alamar blue is used as a redox indicator. Alamar blue fluorescence was measured at an excitation wavelength of 544 nm and an emission wavelength of […] (FLUOstar BMG Lab Technologies, Offenburg, Germany).
(§3) The cells were sub-cultured and the tested compounds were added thereto in increasing concentrations. The IC50 values were determined by linear regression of the survival percentage of the cells.

HL 60 MX2 (MDR) = assay: Proliferation test, HL 60 MX2 (MDR) cells; type: cell-based; details: Homo sapiens, HL60/MX2; linear regression of survival percentage
Description: as §1, §2, §3

MES SA = assay: Proliferation test, MES SA cells; type: cell-based; details: Homo sapiens, linear regression of survival percentage
Description: as §1, §2, §3

MES SA DX5 (MDR) = assay: Proliferation test, MES SA DX5 (MDR) cells; type: cell-based; details: Homo sapiens, linear regression of survival percentage
Description: as §1, §2, §3

Jurkat T lymphoma cells = assay: Proliferation / viability test, Jurkat T lymphoma cells; type: cell-based; details: Homo sapiens, linear regression of survival percentage, read-out: IC50, JURKAT
Description: as §1, §2, §3

U-937 = assay: Proliferation test, U-937 cells; type: cell-based; details: Homo sapiens, linear regression of survival percentage
Description: as §1, §2, §3

[1] = Stability upon prolonged storage (NMR); type: physicochemical; details: about 3 months storage; NMR spectroscopy
rats [2] = assay: Catalepsy in rats, “wall” test; details: i.p.; for time course of catalepsy: over a period of 7 hours (FIGS. 4a, 4b); for induced catalepsy, SAR studies: compared with perphenazine (FIG. 2)
Description: (§4) Animals: Young adult male rats (150-230 grams) were purchased from Harlan (Israel). Animals were divided 2-5/cage and housed in controlled conditions in the animal room for a week prior to the experiments. The experiments were conducted with naive animals, in a double blind procedure. In each experiment various treatment groups (about 5-10 animals each) were tested.
(§5) Catalepsy in rats: The manifestation of the extrapyramidal adverse effects induced by typical neuroleptics was evaluated by the appearance of stereotypic cataleptic behavior in rats following the neuroleptic treatment. Catalepsy was determined by two methods: (i) by measuring the time it took an animal hanging on a cage wall to move its hind legs and reach a flat surface (the “wall” test); and (ii) rats were placed on a flat surface with their anterior limbs leaning on a flat bar (5.5 cm height) resembling a piano playing position. Catalepsy was determined by the time it took an animal to descend and reach the flat surface (the “piano” test). The maximum time of follow up was 2 minutes and these measurements were performed hourly and individually for each animal. These tests provide an assessment of central dopamine (DA) blocking activity and are acceptable criteria for extrapyramidal symptoms induced by anti-psychotic drugs [10].
(§6) A control animals group was treated with the vehicle (lactic acid) only.

rats [3] = assay: Behavioral criteria: sedation and mobility score in rats; details: i.p., 5 mg/kg perphenazine, 7.5 mg/kg fluphenazine or equimolar conjugate, score 0-3
Description: The effect of the administration of the tested compound on animals behavior was measured by evaluating the degree of animal sedation and mobility following the treatment described hereinabove, using a score of from 0 to 3. A score of 0 represents active and mobile animals, 1 represents calm and mobile animals, 2 represents calm and immobile animals and 3 represents completely ataxic and non-alert animals.

rats [4] = assay: D-Amphetamine-induced hyperactivity in rats; type: in vivo, rat; details: GABA alone, 5 mg/kg i.p. (FIGS. 22-25)
Description: D-Amphetamine-induced hyperactivity in rats: The efficacy of the chemical conjugates of the present invention was studied using the D-amphetamine-induced hyperactivity and motility model, which is known as one of the most established animal models for schizophrenia.
Naïve Wistar male rats were placed in individual boxes. In each experiment 4 rats were studied. Perphenazine or equimolar doses of its chemical conjugate AN-168 were administered intraperitoneally (ip) to the rats 30 minutes prior to intraperitoneal administration of amphetamine (2.5 mg/kg), or 90 minutes prior to oral administration of amphetamine (2.5 mg/kg). The animals locomotor activity was assessed using two parameters: climbing attempts of the animal on the barrel walls (as big movements) and head movement of the animal (as small movements). Assessment was recorded every 15 minutes for two hours. Each animal was tested at each time point for 120 seconds.
The climbing behavior of the rats in each group was measured as described hereinabove.

HT-29 = assay: Proliferation test, HT-29 cells; type: cell-based; details: Homo sapiens, linear regression of survival percentage
Description: as §1, §2, §3

3T3 = assay: Proliferation test, 3T3 fibroblasts; type: cell-based; details: Mus musculus, NIH3T3; linear regression of survival percentage
Description: as §1, §2, §3

rats [5] = details: male, rat, in vivo, ip
Description: as §4, §5, §6

C6 rat glioma cells [6] = assay: Chemosensitization in C6 rat glioma cells; type: cell-based; details: Cisplatin 5-50 μM, neutral red (FIG. 17)
Description: Chemosensitization: The chemosensitizing effect of perphenazine and its chemical conjugate AN 168 was measured in vitro. Various concentrations of perphenazine or AN 168 were co-administered together with a chemotherapeutic agent to either C6 rat glioma cells or to Jurkat T lymphoma cells. Cells viability and/or DNA fragmentation following treatment with either the chemotherapeutic agent, perphenazine, AN 168, a combination of the chemotherapeutic agent and perphenazine or a combination of a chemotherapeutic agent with AN 168 were measured as described hereinabove.

C6 rat glioma cells [7] = assay: DNA fragmentation in C6 rat glioma cells (propidium iodide flow cytometry); type: cell-based; details: Cisplatin 30 μM; perphenazine 25 and 50 μM; AN 168 25, 50 μM (FIG. 18)
Description: Apoptosis and DNA fragmentation: Fragmentation of cell nuclei was studied by flow cytometric analysis of propidium iodide-stained cells. This analysis was performed using a FACScan (Becton Dickinson, Mountain View, Calif.) equipped with an argon ion laser adjusted to an excitation wavelength of 480 nm and with a Doublet Discrimination Module (DDM). Lysis II (Becton Dickinson) software was used for data acquisition. Apoptotic nuclear changes were evaluated according to the criteria of Nicolletti et al..
The DNA fragmentation was determined by the propidium iodide flow cytometric method described hereinabove.

[8] = tested on: normal and transformed cells; assay: Proliferation tests, summary over the tested cell lines; type: cell-based; details: read-out: IC50 range, anti-proliferative activity
Description: as §2, §3

B16 MDR = assay: Proliferation test, B16 MDR cells; type: cell-based, murine; details: Mus musculus; linear regression of survival percentage
Description: as §1, §2, §3

B16 = assay: Proliferation test, B16 melanoma cells; type: cell-based, murine; details: Mus musculus, B16; linear regression of survival percentage
Description: as §1, §2, §3

Normal rat fibroblasts = assay: Proliferation test, normal rat fibroblasts; type: cell-based; details: Fibroblast, linear regression of survival percentage
Description: The primary cultures of rat fibroblasts were obtained from neonatal rats using known procedures.
as §2, §3

PC-3 = assay: Proliferation test, PC-3 cells; type: cell-based; details: Homo sapiens, linear regression of survival percentage
Description: as §1, §2, §3

[9] = 5 mg/kg perphenazine, 7.5 mg/kg fluphenazine, equimolar conjugates, sum 0-420 min, normalized to parent drug (FIG. 3a)
[10] = 5 mg/kg perphenazine and equimolar conjugates

## NCCCC(=O)OCCN1CCN(CCCN2c3ccccc3Sc3ccc(C(F)(F)F)cc32)CC1 [AN-187, fluphenazine 4-Aminobutyrate Trihydrochloride]
prolactin
  time at which prolactin blood level peaked: 60 min
HL 60
  IC50: 18.6 µM
HL 60 MX2 (MDR)
  IC50: 17.1 µM
MES SA
  IC50: 14.4 µM
MES SA DX5 (MDR)
  IC50: 9.47 µM
Jurkat T lymphoma cells
  IC50: 10.3 µM
U-937
  IC50: 18.9 µM
[1]
  stability upon prolonged storage: does not tend to decompose upon a prolonged storage
Rats [2]; [9]
  total catalepsy: reduced it considerably
Rats [2]; equimolar to 7.5 mg/kg fluphenazine (FIG. 4b)
  catalepsy at the end of the 7-hours period: abolished at the end of the 7-hours period
Rats [2]
  time course of catalepsy: lower catalepsy
Rats [3]
  sedation and mobility score, 30 min: 1
  sedation and mobility score, 60 min: 2
  sedation and mobility score, 90 min: 2
  sedation and mobility score, 120 min: 2
  sedation and mobility score, 180 min: 1
  sedation and mobility score, 240 min: 1

## CCC(=O)OCCN1CCN(CCCN2c3ccccc3Sc3ccc(C(F)(F)F)cc32)CC1 [AN-179, Fluphenazine Propionate]
HL 60
  IC50: 18.2 µM
HL 60 MX2 (MDR)
  IC50: 21.4 µM

## CCCC(=O)OCCN1CCN(CCCN2c3ccccc3Sc3ccc(C(F)(F)F)cc32)CC1 [AN-180, Fluphenazine Butyrate]
HL 60
  IC50: 19 µM
HL 60 MX2 (MDR)
  IC50: 18.8 µM
MES SA
  IC50: 12 µM
MES SA DX5 (MDR)
  IC50: 12.7 µM
Jurkat T lymphoma cells
  IC50: 10.4 µM
U-937
  IC50: 12.2 µM
Rats [2]; [9]
  total catalepsy: reduced catalepsy significantly
Rats [2]
  time course of catalepsy: lower catalepsy
Rats [3]
  sedation and mobility score, 30 min: 1
  sedation and mobility score, 60 min: 2
  sedation and mobility score, 90 min: 3
  sedation and mobility score, 120 min: 2
  sedation and mobility score, 180 min: 1
  sedation and mobility score, 240 min: 1

## NCCCC(=O)O [GABA, γ-aminobutyric acid, reference compound]
Rats [4]
  effect on amphetamine-induced climbing and head movement: did not modify the effect of amphetamine

## CCCCC(=O)OCCN1CCN(CCCN2c3ccccc3Sc3ccc(Cl)cc32)CC1 [AN-178, Perphenazine Valerate]
HT-29
  IC50: 11.5 µM
3T3
  IC50: 18.6 µM
Rats [2]; [10]
  induced catalepsy, SAR studies: significant reduction of the induced catalepsy

## OCCN1CCN(CCCN2c3ccccc3Sc3ccc(C(F)(F)F)cc32)CC1 [Fluphenazine, fluphenazine, reference compound]
prolactin
  time at which prolactin blood level peaked: 60 min
Rats [5]
  time course of catalepsy: displayed catalepsy during the measured 7 hours

## N.N.[Cl][Pt][Cl] [Cisplatin, reference compound]
C6 rat glioma cells [6]
  cells viability, Cisplatin alone: completely resistant
C6 rat glioma cells [7]
  DNA fragmentation: no effect of DNA fragmentation

## CCCCC(=O)OCCN1CCN(CCCN2c3ccccc3Sc3ccc(C(F)(F)F)cc32)CC1 [AN-181, Fluphenazine Valerate]
HL 60
  IC50: 14.8 µM
HL 60 MX2 (MDR)
  IC50: 16.7 µM

## O=C(O)CCCc1ccccc1 [PBA, 4-phenylbutyric acid]
[8]
  IC50: 2000 to 12000 µM

## CCC(=O)OCCN1CCN(CCCN2c3ccccc3Sc3ccc(Cl)cc32)CC1 [AN-177, Perphenazine Propionate]
HT-29
  IC50: 25.8 µM
3T3
  IC50: 24.6 µM
HL 60
  IC50: 15.1 µM
HL 60 MX2 (MDR)
  IC50: 17.6 µM
Rats [2]; [10]
  induced catalepsy, SAR studies: significant reduction of the induced catalepsy

## CCCC(=O)O [BA, butyric acid, reference compound]
B16 MDR
  IC50: 8000 ± 546 µM
B16
  IC50: 1300 ± 113 µM
HT-29
  IC50: 7170 ± 2030 µM
Normal rat fibroblasts
  IC50: 5540 µM
[8]
  IC50: 1000 to 8000 µM

## O=C(CCCc1ccccc1)OCCN1CCN(CCCN2c3ccccc3Sc3ccc(Cl)cc32)CC1 [AN-130, Perphenazine 4-Phenylbutyrate]
prolactin
  time at which prolactin blood level peaked: 60 min
B16 MDR
  IC50: 58 µM
B16
  IC50: 36.5 ± 8.1 µM
HT-29
  IC50: 17.3 ± 3.07 µM
PC-3
  IC50: 52.9 ± 28.7 µM
Normal rat fibroblasts
  IC50: 41.9 ± 16.8 µM
Rats [2]; 5 mg/kg perphenazine and equimolar conjugates, sum of determinations at 0, 60, 120 min (FIG. 1a)
  total catalepsy: catalepsy was induced
